The test system of the experiment is calcium ionophore-induced LTB4 biosynthesis. The experiment can be described thus: Inhibition of calcium ionophore-induced LTB4 biosynthesis in human whole blood. It is filed as cell-based. Conditions: human heparinized whole blood; 15 min preincubation at 37° C.; A23187 8.3 μM, 30 minutes; LTB4 by radioimmunoassay; read-out: IC50, inhibition of leukotriene biosynthesis in human whole blood. As for the experimental part: Inhibition of leukotriene biosynthesis was evaluated in an assay, involving calcium ionophore-induced LTB4 biosynthesis expressed human whole blood. Human heparinized whole blood was proincubated with test compounds or vehicle for 15 min at 37° C. followed by calcium ionophore A23187 challenge (final concentration of 8.3 μM) and the reaction terminated after 30 minutes by adding two volumes of methanol containing prostaglandin B2 as an internal recovery standard. The methanol extract was analyzed for LTB4 using a commercially available radioimmunoassay.

On to `CC1Cc2c(OCc3ccc4ccccc4n3)ccc3c2c(c(CC(C)(C)C=NOCC(=O)O)n3Cc2ccc(Cl)cc2)S1` (centres unmarked) [Example 1, 3-[1-(4-chlorobenzyl)-4-methyl-6-(quinolin-2-ylmethoxy]-4,5-dihydro-1H-thiopyrano[2,3,4-c,d]indol-2-yl]-2,2dimethylpropionaldehyde oxime-O-acetic acid], for which the IC50 is 2700 nM.

Regarding `CC1Cc2c(OCc3ccc(-c4ccccc4)cn3)ccc3c2c(c(CC(C)(C)C=NOCC(=O)O)n3Cc2ccc(Cl)cc2)S1` (centres unmarked) [Example 2, 3-[1-(4-chlorobenzyl)-4-methyl-6-(5-phenylpyridin-2-ylmethoxy]-4,5-dihydro-1H-thiopyrano[2,3,4-c,d]indol-2-yl]-2,2-dimethylpropionaldehyde oxime-O-acetic acid], the IC50 came to 400 nM.

For the origin of these results see patent US5420282A, “Thiopyrano(2,3,4-c,d) indolyloxime ether alkylcarboxylates” (Abbott Laboratories, priority 1994, dated 1995).
